Drawing on US11185531B2, “Arginine methyltransferase inhibitors and uses thereof” (Epizyme, Inc., priority 2013, dated 2021), this text covers IC50 and EC30 for 4 compounds.

One experiment addresses T1, human PRMT1 (Homo sapiens, UniProt Q99873).
T1 construct: GST-tagged PRMT1; made in house; host or cells: High Five insect cells (baculovirus)
Briefly: PRMT1 Biochemical Assay (3H-SAM Flashplate, peptide substrate). The note with it: 30 min preincubation. The source says: Peptide representative of human histone H4 residues 36-50 was synthesized with an N-terminal linker-affinity tag motif and a C-terminal amide cap by 21st Century Biochemicals. The peptide was purified by high-performance liquid chromatography (HPLC) to greater than 95% purity and confirmed by liquid chromatography mass spectrometry (LC-MS). The sequence was Biot-Ahx-[…]-amide (SEQ ID NO.: 1).
Full-length human PRMT1 isoform 1 (NM_001536.5) transcript clone was amplified from an HEK 293 cDNA library, incorporating flanking 5′ sequence encoding a FLAG tag ([…]) (SEQ ID NO:2) fused directly to Met 1 of PRMT1. The amplified gene was subcloned into pFastBacI (Life Technologies) modified to encode an N-terminal GST tag and a TEV cleavage sequence
GST-tagged PRMT1 was eluted with 50 mM Tris, 2 mM glutathione, pH 7.8, dialysed in buffer A and concentrated to 1 mg/mL. The purity of recovered protein was 73%. Reference: Wasilko, D. J. and S. E. Lee: “TIPS: titerless infected-cells preservation and scale-up” Bioprocess J., 5 (2006), pp. 29-32.
General Procedure for PRMT1 Enzyme Assays on Peptide Substrates.
The assays were all performed in a buffer consisting of 20 mM Bicine (pH=7.6), 1 mM TCEP, 0.005% BSG, and 0.002% Tween 20, prepared on the day of use. Compounds in 100% DMSO (1 ul) were spotted into a polypropylene 384-well V-bottom plates (Greiner) using a Platemate Plus outfitted with a 384-channel head (Thermo Scientific). DMSO (1 ul) was added to Columns 11, 12, 23, 24, rows A-H for the maximum signal control and 1 ul of SAH, a known product and inhibitor of PRMT1, was added to columns 11, 12, 23, 24, rows I-P for the minimum signal control. A cocktail (40 ul) containing the PRMT1 enzyme was added by Multidrop Combi (Thermo-Fisher). The compounds were allowed to incubate with PRMT1 for 30 min at room temperature, then a cocktail (10 ul) containing SAM and peptide was added to initiate the reaction (final volume=51 ul). The final concentrations of the components were as follows: PRMT1 was 0.5 nM, ^3H-SAM was 200 nM, non-radiolabeled SAM was 1.5 uM, peptide was 20 nM, SAH in the minimum signal control wells was 1 mM, and the DMSO concentration was 2%. The assays were stopped by the addition of non-radiolabeled SAM (10 ul) to a final concentration of 300 uM, which dilutes the ^3H-SAM to a level where its incorporation into the peptide substrate is no longer detectable. 50 ul of the reaction in the 384-well polypropylene plate was then transferred to a 384-well Flashplate and the biotinylated peptides were allowed to bind to the streptavidin surface for at least 1 hour before being washed once with 0.1% Tween20 in a Biotek ELx405 plate washer. The plates were then read in a PerkinElmer TopCount plate reader to measure the quantity of ^3H-labeled peptide bound to the Flashplate surface, measured as disintegrations per minute (dpm) or alternatively, referred to as counts per minute (cpm).
(§1) Where dpm=disintegrations per minute, cmpd=signal in assay well, and min and max are the respective minimum and maximum signal controls.
(§2) Where top and bottom are the normally allowed to float, but may be fixed at 100 or 0 respectively in a 3-parameter fit. The Hill Coefficient normally allowed to float but may also be fixed at 1 in a 3-parameter fit. Y is the % inhibition and X is the compound concentration.

For another experiment, the target named is T2, human PRMT6 (Homo sapiens, UniProt Q96LA8).
T2 construct: Flag-PRMT6-His was eluted with 200 ug/ml FLAG peptide in the same buffer; made in house; host or cells: HEK 293F cells (BacMam baculovirus, pFastBacMam)
T2 sequence (Q96LA8 with tags, fused parts or gaps): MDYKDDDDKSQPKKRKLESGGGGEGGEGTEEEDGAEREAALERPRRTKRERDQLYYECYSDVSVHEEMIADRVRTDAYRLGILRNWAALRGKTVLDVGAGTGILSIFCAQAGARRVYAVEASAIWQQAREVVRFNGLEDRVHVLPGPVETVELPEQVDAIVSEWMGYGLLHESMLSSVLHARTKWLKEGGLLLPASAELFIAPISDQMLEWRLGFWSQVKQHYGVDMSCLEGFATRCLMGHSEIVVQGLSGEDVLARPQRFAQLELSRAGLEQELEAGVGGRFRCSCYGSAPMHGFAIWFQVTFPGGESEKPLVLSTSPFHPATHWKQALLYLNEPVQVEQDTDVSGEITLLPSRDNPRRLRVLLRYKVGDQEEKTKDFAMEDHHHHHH
Briefly: PRMT6 Biochemical Assay (3H-SAM Flashplate, peptide substrate). The settings on record: 30 min preincubation.
Excerpt: Peptide representative of human histone H4 residues 36-50 was synthesized with an N-terminal linker-affinity tag motif and a C-terminal amide cap by 21st Century Biochemicals. The peptide was purified by high-performance liquid chromatography (HPLC) to greater than 95% purity and confirmed by liquid chromatography mass spectrometry (LC-MS). The sequence was Biot-Ahx-[…]-amide and contained a monomethylated lysine at position 44 (SEQ ID NO:5).
Full-length human PRMT6 (NM_018137.2) transcript clone was amplified from an HEK 293 cDNA library, incorporating a flanking 5′ sequence encoding a FLAG tag ([…]) (SEQ ID NO:6) fused directly to Ser 2 of PRMT6 and a 3′ sequence encoding a hexa His sequence (HHHHHH) fused directly to Asp 375. The amplified gene was subcloned into pFastBacMam (Viva Biotech).
Column was washed with 20 mM imidazole in the same buffer and Flag-PRMT6-His was eluted with 150 mM imidazole. Pooled fractions were dialysed against buffer Ni-A and further purified by anti-flag M2 affinity chromatography. Flag-PRMT6-His was eluted with 200 ug/ml FLAG peptide in the same buffer. Pooled fractions were dialysed in 20 mM Tris, 150 mM NaCl, 10% glycerol and 5 mM 3-mercaptoethanol, pH 7.8. The purity of recovered protein was 95%.
General Procedure for PRMT6 Enzyme Assays on Peptide Substrates.
The assays were all performed in a buffer consisting of 20 mM Bicine (pH=7.6), 1 mM TCEP, 0.005% BSG, and 0.002% Tween 20, prepared on the day of use. Compounds in 100% DMSO (1 ul) were spotted into a polypropylene 384-well V-bottom plates (Greiner) using a Platemate Plus outfitted with a 384-channel head (Thermo Scientific). DMSO (1 ul) was added to Columns 11, 12, 23, 24, rows A-H for the maximum signal control and 1 ul of SAH, a known product and inhibitor of PRMT6, was added to columns 11, 12, 23, 24, rows I-P for the minimum signal control. A cocktail (40 ul) containing the PRMT6 enzyme was added by Multidrop Combi (Thermo-Fisher). The compounds were allowed to incubate with PRMT6 for 30 min at room temperature, then a cocktail (10 ul) containing SAM and peptide was added to initiate the reaction (final volume=51 ul). The final concentrations of the components were as follows: PRMT6 was 1 nM, ^3H-SAM was 200 nM, non-radiolabeled SAM was 250 nM, peptide was 75 nM, SAH in the minimum signal control wells was 1 mM, and the DMSO concentration was 2%. The assays were stopped by the addition of non-radiolabeled SAM (10 ul) to a final concentration of 400 uM, which dilutes the ^3H-SAM to a level where its incorporation into the peptide substrate is no longer detectable. 50 ul of the reaction in the 384-well polypropylene plate was then transferred to a 384-well Flashplate and the biotinylated peptides were allowed to bind to the streptavidin surface for at least 1 hour before being washed once with 0.1% Tween20 in a Biotek ELx405 plate washer. The plates were then read in a PerkinElmer TopCount plate reader to measure the quantity of ^3H-labeled peptide bound to the Flashplate surface, measured as disintegrations per minute (dpm) or alternatively, referred to as counts per minute (cpm).
as §1, §2

The test system of experiment [1] is mono-methyl arginine in RKO cells. The experiment in a line: RKO Methylation Assay, In Cell Western for mono-methyl arginine. The experiment is classed as cell-based. The note with it: Homo sapiens, 72 hours, percent activation of mono-methyl arginine signal. The source says:
RKO adherent cells were purchased from ATCC (American Type Culture Collection), Manassas, Va., USA. DMEM/Glutamax medium, penicillin-streptomycin, heat inactivated fetal bovine serum, 0.05% trypsin and D-PBS were purchased from Life Technologies, Grand Island, N.Y., USA. Odyssey blocking buffer, 800 CW goat anti-rabbit IgG (H+L) antibody, and Licor Odyssey infrared scanner were purchased from Licor Biosciences, Lincoln, Nebr., USA. Mono-methyl arginine antibody was purchased from Cell Signaling Technology, Danvers, Mass., USA. Methanol was purchased from VWR, Franklin, Mass., USA. 10% Tween 20 was purchased from KPL, Inc., Gaithersburg, Md., USA. DRAQ5 was purchased from Biostatus Limited, Leicestershire, UK.
RKO adherent cells were maintained in growth medium (DMEM/Glutamax medium supplemented with 10% v/v heat inactivated fetal bovine serum and 100 units/mL penicillin-streptomycin) and cultured at 37° C. under 5% CO2.
Cell Treatment, in Cell Western (ICW) for Detection of Mono-Methyl Arginine and DNA Content.
RKO cells were seeded in assay medium at a concentration of 20,000 cells per mL to a poly-D-lysine coated 384 well culture plate (BD Biosciences 356697) with 50 μL per well. Compound (100 nL) from a 96-well source plate was added directly to 384 well cell plate. Plates were incubated at 37° C., 5% CO2 for 72 hours. After three days of incubation, plates were brought to room temperature outside of the incubator for ten minutes and blotted on paper towels to remove cell media. 50 μL of ice cold 100% methanol was added directly to each well and incubated for 30 min at room temperature. After 30 min, plates were transferred to a Biotek EL406 plate washer and washed 2 times with 100 μL per well of wash buffer (IX PBS). Next 60 μL per well of Odyssey blocking buffer (Odyssey Buffer with 0.1% Tween 20 (v/v)) were added to each plate and incubated 1 hour at room temperature. Blocking buffer was removed and 20 μL per well of primary antibody was added (mono-methyl arginine diluted 1:200 in Odyssey buffer with 0.1% Tween 20 (v/v)) and plates were incubated overnight (16 hours) at 4° C. Plates were washed 5 times with 100 μL per well of wash buffer. Next 20 μL per well of secondary antibody was added (1:200 800 CW goat anti-rabbit IgG (H+L) antibody, 1:1000 DRAQ5 (Biostatus limited) in Odyssey buffer with 0.1% Tween 20 (v/v)) and incubated for 1 hour at room temperature. The plates were washed 5 times with 100 μL per well wash buffer then 2 times with 100 μL per well of water. Plates were allowed to dry at room temperature then imaged on the Licor Odyssey machine which measures integrated intensity at 700 nm and 800 nm wavelengths. Both 700 and 800 channels were scanned.
First, the ratio for each well was determined by:
Each plate included fourteen control wells of DMSO only treatment (minimum activation) as well as fourteen control wells for maximum activation treated with 20 μM of a reference compound. The average of the ratio values for each control type was calculated and used to determine the percent activation for each test well in the plate. Reference compound was serially diluted three-fold in DMSO for a total of nine test concentrations, beginning at 20 μM. Percent activation was determined and EC30 curves were generated using triplicate wells per concentration of compound.

For the next experiment, the target named is T3, human PRMT8 (Homo sapiens, UniProt Q9NR22).
T3 construct: Full-length human PRMT8 (NM_019854.4) isoform 1 transcript clone; GST (N, cleaved yes); made in house; host or cells: E. coli BL21(DE3) Gold
T3 sequence (Q9NR22 whole entry, canonical isoform): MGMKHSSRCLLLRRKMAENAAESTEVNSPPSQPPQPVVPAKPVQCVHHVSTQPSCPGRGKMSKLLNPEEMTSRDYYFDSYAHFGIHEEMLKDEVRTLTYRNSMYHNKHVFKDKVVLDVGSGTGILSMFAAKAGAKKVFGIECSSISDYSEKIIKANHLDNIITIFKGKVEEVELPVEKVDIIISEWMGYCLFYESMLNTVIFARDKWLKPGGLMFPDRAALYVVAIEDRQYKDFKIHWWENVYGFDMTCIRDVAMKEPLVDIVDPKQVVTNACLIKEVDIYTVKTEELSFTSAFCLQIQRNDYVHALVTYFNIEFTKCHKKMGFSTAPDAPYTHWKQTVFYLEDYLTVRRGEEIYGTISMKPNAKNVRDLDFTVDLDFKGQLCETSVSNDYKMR
The experiment in a line: PRMT8 Biochemical Assay (3H-SAM Flashplate, peptide substrate). The settings on record: 30 min preincubation.
Excerpt: Peptide representative of human histone H4 residues 31-45 was synthesized with an N-terminal linker-affinity tag motif and a C-terminal amide cap by 21st Century Biochemicals. The peptide was purified by high-performance liquid chromatography (HPLC) to greater than 95% purity and confirmed by liquid chromatography mass spectrometry (LC-MS). The sequence was Biot-Ahx-[…]-amide (SEQ ID NO:8).
The resulting construct encodes an N-terminal GST tag and a thrombin cleavage sequence
GST-tagged PRMT8 was eluted with 50 mM Tris, 2 mM glutathione, pH 7.8. Pooled fractions were cleaved by thrombin (10 U) and dialysed in buffer A. GST was removed by reloading the cleaved protein sample onto glutathione sepharose column and PRMT8 was collected in the flow-through fractions. PRMT8 was purified further by ceramic hydroxyapatite chromatography. The column was washed with 50 mM phosphate buffer, 100 mM NaCl, 5% glycerol, 5 mM 3-mercaptoethanol, pH 7.8 and PRMT8 was eluted by 100 mM phosphate in the same buffer. Protein was concentrated and buffer was exchanged to 50 mM Tris, 300 mM NaCl, 10% glycerol, 5 mM β-mercaptoethanol, pH 7.8 by ultrafiltration. The purity of recovered protein was 89%.
General Procedure for PRMT8 Enzyme Assays on Peptide Substrates.
The assays were all performed in a buffer consisting of 20 mM Bicine (pH=7.6), 1 mM TCEP, 0.005% BSG, and 0.002% Tween 20, prepared on the day of use. Compounds in 100% DMSO (1 ul) were spotted into a polypropylene 384-well V-bottom plates (Greiner) using a Platemate Plus outfitted with a 384-channel head (Thermo Scientific). DMSO (1 ul) was added to Columns 11, 12, 23, 24, rows A-H for the maximum signal control and 1 ul of SAH, a known product and inhibitor of PRMT8, was added to columns 11, 12, 23, 24, rows I-P for the minimum signal control. A cocktail (40 ul) containing the PRMT8 enzyme was added by Multidrop Combi (Thermo-Fisher). The compounds were allowed to incubate with PRMT8 for 30 min at room temperature, then a cocktail (10 ul) containing ^3H-SAM and peptide was added to initiate the reaction (final volume=51 ul). The final concentrations of the components were as follows: PRMT8 was 1.5 nM, ^3H-SAM was 50 nM, non-radiolabeled SAM was 550 nM, peptide was 150 nM, SAH in the minimum signal control wells was 1 mM, and the DMSO concentration was 2%. The assays were stopped by the addition of non-radiolabeled SAM (10 ul) to a final concentration of 400 uM, which dilutes the ^3H-SAM to a level where its incorporation into the peptide substrate is no longer detectable. 50 ul of the reaction in the 384-well polypropylene plate was then transferred to a 384-well Flashplate and the biotinylated peptides were allowed to bind to the streptavidin surface for at least 1 hour before being washed once with 0.1% Tween20 in a Biotek ELx405 plate washer. The plates were then read in a PerkinElmer TopCount plate reader to measure the quantity of ^3H-labeled peptide bound to the Flashplate surface, measured as disintegrations per minute (dpm) or alternatively, referred to as counts per minute (cpm).
as §1, §2

T1 sequence (Q99873 with tags, fused parts or gaps): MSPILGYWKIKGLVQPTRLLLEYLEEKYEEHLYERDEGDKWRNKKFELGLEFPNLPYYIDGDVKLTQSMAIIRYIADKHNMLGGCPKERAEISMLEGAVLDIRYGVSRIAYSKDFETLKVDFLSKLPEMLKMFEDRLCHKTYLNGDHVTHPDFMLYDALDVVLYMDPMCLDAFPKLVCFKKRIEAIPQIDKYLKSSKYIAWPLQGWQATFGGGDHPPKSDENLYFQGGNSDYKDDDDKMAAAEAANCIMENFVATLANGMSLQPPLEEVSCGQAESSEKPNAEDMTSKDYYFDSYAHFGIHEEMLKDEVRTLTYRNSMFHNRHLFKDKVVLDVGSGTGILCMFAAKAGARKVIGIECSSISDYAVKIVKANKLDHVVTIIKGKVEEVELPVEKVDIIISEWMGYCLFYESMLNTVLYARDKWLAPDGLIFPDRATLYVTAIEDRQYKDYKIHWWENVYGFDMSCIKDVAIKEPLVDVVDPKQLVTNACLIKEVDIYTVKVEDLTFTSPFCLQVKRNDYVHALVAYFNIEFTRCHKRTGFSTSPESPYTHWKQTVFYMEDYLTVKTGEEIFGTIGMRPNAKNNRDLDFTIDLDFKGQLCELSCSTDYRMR

In the case of `CN(CCN)Cc1c[nH]nc1C1CC1` [Compound 12], the IC50 at human PRMT1 and against human PRMT6 was 1010 to 3000 nM in each case.

Take `CN(CCN)Cc1c[nH]nc1C(C)(C)C` [Compound 27]: the IC50 (as a rule, the concentration that inhibits the measured activity by half) against human PRMT6 was in the range of 1010 to 3000 nM. The EC30 (usually the concentration at which the effect reaches the 30% level) in experiment [1] is over 12000 nM.

With `CNCCN(C)Cc1c[nH]nc1C1CCN(C(=O)CC(C)C)CC1` [Compound 40, 3-methyl-1-(4-(4-((methyl(2-(methylamino)ethyl)amino)methyl)-1H-pyrazol-3-yl)piperidin-1-yl)butan-1-one], the half-inhibitory concentration (IC50) was under 100 nM on human PRMT6 and 101 to 1000 nM against human PRMT8.

In turn, `CN(CCN)Cc1c[nH]nc1C1CCC(N2CCOCC2)CC1` (centres unmarked) [Compound 43, N^1-methyl-N^1-((3-(4-morpholinocyclohexyl)-1H-pyrazol-4-yl)methyl)ethane-1,2-diamine] yielded an IC50 at human PRMT6 of under 100 nM. For the same compound, in experiment [1], the concentration for an effect of 30% (EC30) was under 3000 nM.
